Assay: Inhibition of p38 kinase

SMILES | IC50 [nM]
CN(C)CCCNc1nccc(-c2c(-c3ccc(F)cc3)nn3cc(C(F)(F)F)ccc23)n1 | 630
CN(C)c1cc(-c2c(-c3ccc(F)cc3)nn3ccccc23)ccn1 | 1000
Fc1ccc(-c2nn3ccccc3c2-c2ccnc(NCc3ccccc3)c2)cc1 | 160
Fc1ccc(-c2nn3ccccc3c2-c2ccnc(Nc3ccccc3)c2)cc1 | 160
CCCCNc1cc(-c2c(-c3ccc(F)cc3)nn3cccc(F)c23)ccn1 | 160
COc1cccc2c(-c3ccncc3)c(-c3ccc(F)cc3)nn12 | 100
Nc1cc(-c2c(-c3ccc(F)cc3)nn3cc(C(F)(F)F)ccc23)ccn1 | 100
CC(C)Nc1cc(-c2c(-c3ccc(F)cc3)nn3cc(C(N)=O)ccc23)ccn1 | 80
CCCCNc1cc(-c2c(-c3ccc(F)cc3)nn3c(OC)cccc23)ccn1 | 60
N#Cc1ccc2c(-c3ccnc(NC4CC4)c3)c(-c3ccc(F)cc3)nn2c1 | 50
CN(C)CCCNc1nccc(-c2c(-c3ccc(C(F)(F)F)cc3)nn3cc(C(F)(F)F)ccc23)n1 | 1250
Fc1ccc(-c2nn3ccccc3c2-c2ccncn2)cc1 | 630
Cc1cccc2c(-c3ccncn3)c(-c3ccc(F)cc3)nn12 | 500
CN1CCN(CCCNc2nccc(-c3c(-c4ccc(C(F)(F)F)cc4)nn4cc(C(F)(F)F)ccc34)n2)CC1 | 400
OCCCNc1nccc(-c2c(-c3cccc(C(F)(F)F)c3)nn3cc(C(F)(F)F)ccc23)n1 | 200
CSc1cccc2c(-c3ccncn3)c(-c3ccc(F)cc3)nn12 | 160
CN1CCN(CCCNc2nccc(-c3c(-c4ccc(F)cc4)nn4cc(C(F)(F)F)ccc34)n2)CC1 | 130
Nc1nccc(-c2c(-c3ccc(F)cc3)nn3ccccc23)n1 | 100
CN(C)CCCNc1nccc(-c2c(-c3cccc(Cl)c3)nn3cc(C(F)(F)F)ccc23)n1 | 100
CN(C)C(=O)c1ccc2c(-c3ccnc(NC4CC4)n3)c(-c3cccc(C(F)(F)F)c3)nn2c1 | 60
CN(C)C(=O)c1ccc2c(-c3ccnc(NC4CC4)n3)c(-c3ccc(F)cc3)nn2c1 | 60
OCCCNc1nccc(-c2c(-c3ccc(F)cc3)nn3cc(C(F)(F)F)ccc23)n1 | 60
OCCCNc1nccc(-c2c(-c3ccc(F)cc3)nn3cc(Cl)ccc23)n1 | 40
CCCCNc1nccc(-c2c(-c3ccc(F)cc3)nn3c(OCCF)cccc23)n1 | 40
CN1CCN(CCCNc2nccc(-c3c(-c4ccc(F)cc4)nn4cc(C(N)=O)ccc34)n2)CC1 | 40
CC(C)Nc1nccc(-c2c(-c3ccc(F)cc3)nn3cc(C(F)(F)F)ccc23)n1 | 40
NC(=O)c1ccc2c(-c3ccnc(NC4CC4)n3)c(-c3ccc(F)cc3)nn2c1 | 20
N#Cc1ccc2c(-c3ccnc(NC4CC4)n3)c(-c3ccc(F)cc3)nn2c1 [GW561436X] | 30
Nc1nccc(-c2c(-c3ccc(F)cc3)nn3cc(C(F)(F)F)ccc23)n1 [GW568326X] | 200
NC(=O)c1ccc2c(-c3ccnc(NCCCO)n3)c(-c3ccc(F)cc3)nn2c1 [GW581744X] | 10

— ChEMBL document CHEMBL1949665, “Pyrazolo[1,5-a]pyridines as p38 kinase inhibitors” (Org Lett, 2005)
